# Measurements from PubChem BioAssay (NCI).
#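 Exposure lasted 48 hours, with cells grown in 96-well plates and compounds tested at five concentrations. GI50 is the concentration that inhibits growth by half. The concentration for full growth arrest is given as TGI.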
# Experiments:
# Assay in all cases: growth of human tumour cells (NCI), 48 h
# SNB-75 CNS = system: SNB-75 CNS
# A498 renal = system: A498 renal
# K-562 leukemia = system: K-562 leukemia
# HCC-2998 colon = system: HCC-2998 colon
# RPMI-8226 leukemia = system: RPMI-8226 leukemia
# HCT-15 colon = system: HCT-15 colon
# UACC-62 melanoma = system: UACC-62 melanoma
# SN12C renal = system: SN12C renal
# HS 578T breast = system: HS 578T breast
# SF-268 CNS = system: SF-268 CNS
# SK-MEL-2 melanoma = system: SK-MEL-2 melanoma
# KM12 colon = system: KM12 colon
# NCI-H460 lung = system: NCI-H460 lung
# CCRF-CEM leukemia = system: CCRF-CEM leukemia
# U251 CNS = system: U251 CNS
# MCF7 breast = system: MCF7 breast
# OVCAR-5 ovarian = system: OVCAR-5 ovarian
# T-47D breast = system: T-47D breast
# A549 NSCLC = system: A549 NSCLC
# SK-MEL-28 melanoma = system: SK-MEL-28 melanoma
# HL-60(TB) leukemia = system: HL-60(TB) leukemia
# SNB-19 CNS = system: SNB-19 CNS
# OVCAR-8 ovarian = system: OVCAR-8 ovarian
# RXF 393 renal = system: RXF 393 renal
# MDA-MB-231 breast = system: MDA-MB-231 breast
# SF-539 CNS = system: SF-539 CNS
# HOP-62 NSCLC = system: HOP-62 NSCLC
# PC-3 prostate = system: PC-3 prostate
# MALME-3M melanoma = system: MALME-3M melanoma
# SR leukemia = system: SR leukemia
# IGROV1 ovarian = system: IGROV1 ovarian
# EKVX NSCLC = system: EKVX NSCLC
# MDA-MB-435 = system: MDA-MB-435
# M14 melanoma = system: M14 melanoma
# HOP-92 NSCLC = system: HOP-92 NSCLC
# NCI-H522 lung = system: NCI-H522 lung
# UACC-257 melanoma = system: UACC-257 melanoma
# TK-10 renal = system: TK-10 renal
# SK-MEL-5 melanoma = system: SK-MEL-5 melanoma
# LOX IMVI melanoma = system: LOX IMVI melanoma
# MOLT-4 leukemia = system: MOLT-4 leukemia
# COLO 205 colon = system: COLO 205 colon
# UO-31 renal = system: UO-31 renal
# HCT-116 colon = system: HCT-116 colon
# 786-0 renal = system: 786-0 renal
# SW-620 colon = system: SW-620 colon
# SK-OV-3 ovarian = system: SK-OV-3 ovarian
# BT-549 breast = system: BT-549 breast
# SF-295 CNS = system: SF-295 CNS
# HT29 colon = system: HT29 colon
# ACHN renal = system: ACHN renal
# OVCAR-3 ovarian = system: OVCAR-3 ovarian
# OVCAR-4 ovarian = system: OVCAR-4 ovarian
# DU-145 prostate = system: DU-145 prostate
structure (smiles),measurement,setting,value
COc1cc2c(cc1OC)C(Sc1ccc(Cl)cc1)c1c(nc(N)c(C#N)c1N)O2 (stereo not drawn),GI50,SNB-75 CNS,1.14 µM
same,TGI,SNB-75 CNS,2.42 µM
same,GI50,A498 renal,1.73 µM
same,TGI,A498 renal,5.01 µM
same,GI50,K-562 leukemia,0.791 µM
same,TGI,K-562 leukemia,8.28 µM
same,GI50,HCC-2998 colon,1.72 µM
same,TGI,HCC-2998 colon,3.25 µM
same,GI50,RPMI-8226 leukemia,1.42 µM
same,TGI,RPMI-8226 leukemia,4.8 µM
same,GI50,HCT-15 colon,1.19 µM
same,TGI,HCT-15 colon,2.66 µM
same,GI50,UACC-62 melanoma,1.27 µM
same,TGI,UACC-62 melanoma,2.66 µM
same,GI50,SN12C renal,1.51 µM
same,TGI,SN12C renal,2.94 µM
same,GI50,HS 578T breast,1.98 µM
same,TGI,HS 578T breast,6.43 µM
same,GI50,SF-268 CNS,1.65 µM
same,TGI,SF-268 CNS,3.17 µM
same,GI50,SK-MEL-2 melanoma,1.2 µM
same,TGI,SK-MEL-2 melanoma,2.55 µM
same,GI50,KM12 colon,1.75 µM
same,TGI,KM12 colon,3.35 µM
same,GI50,NCI-H460 lung,1.65 µM
same,TGI,NCI-H460 lung,3.74 µM
same,GI50,CCRF-CEM leukemia,0.311 µM
same,TGI,CCRF-CEM leukemia,2.63 µM
same,GI50,U251 CNS,0.916 µM
same,TGI,U251 CNS,2.14 µM
same,GI50,MCF7 breast,0.564 µM
same,TGI,MCF7 breast,2.91 µM
same,GI50,OVCAR-5 ovarian,1.89 µM
same,TGI,OVCAR-5 ovarian,3.88 µM
same,GI50,T-47D breast,1.29 µM
same,TGI,T-47D breast,3.65 µM
same,GI50,A549 NSCLC,1.75 µM
same,TGI,A549 NSCLC,3.36 µM
same,GI50,SK-MEL-28 melanoma,1.57 µM
same,TGI,SK-MEL-28 melanoma,3.11 µM
same,GI50,HL-60(TB) leukemia,0.578 µM
same,TGI,HL-60(TB) leukemia,3.73 µM
same,GI50,SNB-19 CNS,1.47 µM
same,TGI,SNB-19 CNS,2.86 µM
same,GI50,OVCAR-8 ovarian,1.39 µM
same,TGI,OVCAR-8 ovarian,2.76 µM
same,GI50,RXF 393 renal,1.39 µM
same,TGI,RXF 393 renal,2.77 µM
same,GI50,MDA-MB-231 breast,1.37 µM
same,TGI,MDA-MB-231 breast,2.76 µM
same,GI50,SF-539 CNS,1.61 µM
same,TGI,SF-539 CNS,3.03 µM
same,GI50,HOP-62 NSCLC,1.53 µM
same,TGI,HOP-62 NSCLC,2.88 µM
same,GI50,PC-3 prostate,1.56 µM
same,TGI,PC-3 prostate,3.07 µM
same,GI50,MALME-3M melanoma,1.49 µM
same,TGI,MALME-3M melanoma,3.1 µM
same,GI50,SR leukemia,0.329 µM
same,TGI,SR leukemia,1.66 µM
same,GI50,IGROV1 ovarian,1.07 µM
same,TGI,IGROV1 ovarian,2.88 µM
same,GI50,EKVX NSCLC,1.57 µM
same,TGI,EKVX NSCLC,3.02 µM
same,GI50,MDA-MB-435,1.42 µM
same,TGI,MDA-MB-435,2.85 µM
same,GI50,M14 melanoma,1.63 µM
same,TGI,M14 melanoma,3.1 µM
same,GI50,HOP-92 NSCLC,1.51 µM
same,TGI,HOP-92 NSCLC,3.19 µM
same,GI50,NCI-H522 lung,1.29 µM
same,TGI,NCI-H522 lung,2.64 µM
same,GI50,UACC-257 melanoma,1.58 µM
same,TGI,UACC-257 melanoma,2.96 µM
same,GI50,TK-10 renal,1.43 µM
same,TGI,TK-10 renal,2.75 µM
same,GI50,SK-MEL-5 melanoma,1.39 µM
same,TGI,SK-MEL-5 melanoma,2.71 µM
same,GI50,LOX IMVI melanoma,1.09 µM
same,TGI,LOX IMVI melanoma,2.35 µM
same,GI50,MOLT-4 leukemia,0.917 µM
same,TGI,MOLT-4 leukemia,4.89 µM
same,GI50,COLO 205 colon,1.43 µM
same,TGI,COLO 205 colon,2.95 µM
same,GI50,UO-31 renal,1.21 µM
same,TGI,UO-31 renal,2.46 µM
same,GI50,HCT-116 colon,1.96 µM
same,TGI,HCT-116 colon,3.46 µM
same,GI50,786-0 renal,1.37 µM
same,TGI,786-0 renal,2.7 µM
same,GI50,SW-620 colon,1.37 µM
same,TGI,SW-620 colon,3.14 µM
same,GI50,SK-OV-3 ovarian,1.74 µM
same,TGI,SK-OV-3 ovarian,3.12 µM
same,GI50,BT-549 breast,1.49 µM
same,TGI,BT-549 breast,2.83 µM
same,GI50,SF-295 CNS,1.83 µM
same,TGI,SF-295 CNS,3.31 µM
same,GI50,HT29 colon,1.88 µM
same,TGI,HT29 colon,4.12 µM
same,GI50,ACHN renal,1.59 µM
same,TGI,ACHN renal,2.95 µM
same,GI50,OVCAR-3 ovarian,1.27 µM
same,TGI,OVCAR-3 ovarian,2.56 µM
same,GI50,OVCAR-4 ovarian,1.53 µM
same,TGI,OVCAR-4 ovarian,2.96 µM
same,GI50,DU-145 prostate,1.67 µM
same,TGI,DU-145 prostate,3.05 µM
